Assay results: patent US11679110B2, “Methods of treating disorders using CSF1R inhibitors” (Deciphera Pharmaceuticals, LLC, priority 2018, dated 2023)
Like-named read-outs stand apart in the source and are kept apart here.

Legend:
[1] = Plasma pharmacokinetics of Compound 1 in patients with advanced solid tumor malignancies and TGCT; format: in vivo, human; details: for Cmax / AUC(0-t) / Tmax: human, plasma, oral; for Tmax: Median (Min, Max)
Procedure: PK analysis was conducted on all 38 patients. Serial blood samples were collected for PK and took place on either Day −7, Cycle 1, Day 1 (C1D1) and C2D1 at pre-dose, 0.5, 1, 2, 4, 6, 8, 10-12, and 24 hr time points or Day −7, C1D1, C1D8, and C2D1 at pre-dose, 1, 2, 4, 6, and 8 hr time points, or C1D1, C1D8, and C2D1 at pre-dose, 1, 2, 4, 6, and 8 hr time points. High fat meal was given prior to dosing of Compound 1 on Day −7. PD effects were measured by two methodologies: 1) depletion of CSF1R-expressing monocytes in peripheral blood (Cohorts 1-7) from C1D1, C1D15 and C2D1; and 2) increase of plasma levels of CSF1 and IL-34, the ligands for CSF1R (Cohorts 1-7) on C1D1, C1D15, and C2D1. For the CD16^+ monocyte assay, whole blood collected in an EDTA vacutainer was aliquoted into tubes and incubated with fluorescently-labeled antibodies (CD14-Alexa488 (BD Pharmingen); CD16-PE-Cy7 (BD Pharmingen); and TIE2-APC (R&D Systems). After incubation, red blood cells were lysed, and the remaining cells were washed several times before being analyzed on a flow cytometer. For the plasma CSF1 assay or IL-34, whole blood collected in an EDTA vacutainer was centrifuged, and the plasma was collected and frozen. Plasma levels of CSF1 or IL-34 were measured using a commercial ELISA kit (R&D Systems).
Cohort 1 had daily dosing.

[2] = human, in vivo

Cc1nc(-c2cnc(NC(C)C)n(C)c2=O)ccc1Oc1ccnc(-c2cnn(C)c2)c1 [Compound 1, 2-(isopropylamino)-3-methyl-5-(6-methyl-5-((2-(1-methyl-1H-pyrazol-4-yl)pyridin-4-yl)oxy)pyridin-2-yl)pyrimidin-4(3H)-one]
Cmax ([1]; 20 mg, Cohort 3 20 mg Weekly after 5-day QD loading dose, Day-7, GM (CV %)): 0.242 µg/mL | AUC(0-t) ([1]; 20 mg, Cohort 3 20 mg Weekly after 5-day QD loading dose, Day-7, GM (CV %), read-out: AUC0-8): 1.32 µg·h/mL | Tmax ([1]; 20 mg, Cohort 3 20 mg Weekly after 5-day QD loading dose, Day-7): 4 h | Cmax ([1]; 20 mg, Cohort 4 20 mg QD x 5 d, BIW maintenance dose, C1D1, Geo Mean): 0.268 µg/mL | AUC(0-t) ([1]; 20 mg, Cohort 4 20 mg QD x 5 d, BIW maintenance dose, C1D1, Geo Mean, read-out: AUC0-8 h): 1.61 µg·h/mL | Cmax ([1]; 20 mg, Cohort 4 20 mg QD x 5 d, BIW maintenance dose, C1D8, Geo Mean): 0.685 µg/mL | AUC(0-t) ([1]; 20 mg, Cohort 4 20 mg QD x 5 d, BIW maintenance dose, C1D8, Geo Mean, read-out: AUC0-8 h): 4.66 µg·h/mL | Cmax ([1]; 20 mg, Cohort 4 20 mg QD x 5 d, BIW maintenance dose, C2D1, Geo Mean): 0.642 µg/mL | AUC(0-t) ([1]; 20 mg, Cohort 4 20 mg QD x 5 d, BIW maintenance dose, C2D1, Geo Mean, read-out: AUC0-8 h): 4.3 µg·h/mL | Cmax ([1]; 20 mg, Cohort 4 20 mg QD x 5 d, BIW maintenance dose, Day -7, Geo Mean): 0.183 µg/mL | AUC(0-t) ([1]; 20 mg, Cohort 4 20 mg QD x 5 d, BIW maintenance dose, Day -7, Geo Mean, read-out: AUC0-8 h): 1.09 µg·h/mL | Cmax ([1]; 20 mg, Cohort 4 20 mg Twice Weekly after 5-day QD loading dose, C1D1, GM (CV %)): 0.268 µg/mL | AUC(0-t) ([1]; 20 mg, Cohort 4 20 mg Twice Weekly after 5-day QD loading dose, C1D1, GM (CV %), read-out: AUC0-8): 1.61 µg·h/mL | Tmax ([1]; 20 mg, Cohort 4 20 mg Twice Weekly after 5-day QD loading dose, C1D1): 0.75 h | Cmax ([1]; 20 mg, Cohort 4 20 mg Twice Weekly after 5-day QD loading dose, C1D8, GM (CV %)): 0.685 µg/mL | AUC(0-t) ([1]; 20 mg, Cohort 4 20 mg Twice Weekly after 5-day QD loading dose, C1D8, GM (CV %), read-out: AUC0-8): 4.66 µg·h/mL | Tmax ([1]; 20 mg, Cohort 4 20 mg Twice Weekly after 5-day QD loading dose, C1D8): 2.25 h | Cmax ([1]; 20 mg, Cohort 4 20 mg Twice Weekly after 5-day QD loading dose, C2D1, GM (CV %)): 0.642 µg/mL | AUC(0-t) ([1]; 20 mg, Cohort 4 20 mg Twice Weekly after 5-day QD loading dose, C2D1, GM (CV %), read-out: AUC0-8): 4.3 µg·h/mL | Tmax ([1]; 20 mg, Cohort 4 20 mg Twice Weekly after 5-day QD loading dose, C2D1): 0.5 h | Cmax ([1]; 20 mg, Cohort 4 20 mg Twice Weekly after 5-day QD loading dose, Day-7, GM (CV %)): 0.183 µg/mL | AUC(0-t) ([1]; 20 mg, Cohort 4 20 mg Twice Weekly after 5-day QD loading dose, Day-7, GM (CV %), read-out: AUC0-8): 1.09 µg·h/mL | Tmax ([1]; 20 mg, Cohort 4 20 mg Twice Weekly after 5-day QD loading dose, Day-7): 4 h | AUC(0-t) ([1]; 20 mg, Cohort 7 20 mg QD after 3-day 50 mg QD loading dose, C2D1, GM (CV %), read-out: AUC0-8): 7.98 µg·h/mL | Cmax ([1]; 30 mg, Cohort 5 30 mg QD x 5 d, BIW maintenance dose, C1D1, Geo Mean): 0.6 µg/mL | AUC(0-t) ([1]; 30 mg, Cohort 5 30 mg QD x 5 d, BIW maintenance dose, C1D1, Geo Mean, read-out: AUC0-8 h): 3.39 µg·h/mL | Cmax ([1]; 30 mg, Cohort 5 30 mg QD x 5 d, BIW maintenance dose, C1D8, Geo Mean): 1.4 µg/mL | AUC(0-t) ([1]; 30 mg, Cohort 5 30 mg QD x 5 d, BIW maintenance dose, C1D8, Geo Mean, read-out: AUC0-8 h): 8.8 µg·h/mL | Cmax ([1]; 30 mg, Cohort 5 30 mg QD x 5 d, BIW maintenance dose, C2D1, Geo Mean): 0.953 µg/mL | AUC(0-t) ([1]; 30 mg, Cohort 5 30 mg QD x 5 d, BIW maintenance dose, C2D1, Geo Mean, read-out: AUC0-8 h): 5.42 µg·h/mL | Cmax ([1]; 30 mg, Cohort 5 30 mg QD x 5 d, BIW maintenance dose, Day -7, Geo Mean): 0.278 µg/mL | AUC(0-t) ([1]; 30 mg, Cohort 5 30 mg QD x 5 d, BIW maintenance dose, Day -7, Geo Mean, read-out: AUC0-8 h): 1.39 µg·h/mL | Cmax ([1]; 30 mg, Cohort 5 30 mg Twice Weekly after 5-day QD loading dose, C1D1, GM (CV %)): 0.422 µg/mL | AUC(0-t) ([1]; 30 mg, Cohort 5 30 mg Twice Weekly after 5-day QD loading dose, C1D1, GM (CV %), read-out: AUC0-8): 2.25 µg·h/mL | Tmax ([1]; 30 mg, Cohort 5 30 mg Twice Weekly after 5-day QD loading dose, C1D1): 1 h | Cmax ([1]; 30 mg, Cohort 5 30 mg Twice Weekly after 5-day QD loading dose, C1D8, GM (CV %)): 1.16 µg/mL | AUC(0-t) ([1]; 30 mg, Cohort 5 30 mg Twice Weekly after 5-day QD loading dose, C1D8, GM (CV %), read-out: AUC0-8): 7.16 µg·h/mL | Tmax ([1]; 30 mg, Cohort 5 30 mg Twice Weekly after 5-day QD loading dose, C1D8): 1 h | Cmax ([1]; 30 mg, Cohort 5 30 mg Twice Weekly after 5-day QD loading dose, C2D1, GM (CV %)): 0.822 µg/mL | AUC(0-t) ([1]; 30 mg, Cohort 5 30 mg Twice Weekly after 5-day QD loading dose, C2D1, GM (CV %), read-out: AUC0-8): 5.42 µg·h/mL | Tmax ([1]; 30 mg, Cohort 5 30 mg Twice Weekly after 5-day QD loading dose, C2D1): 1.5 h | Cmax ([1]; 30 mg, Cohort 5 30 mg Twice Weekly after 5-day QD loading dose, Day-7, GM (CV %)): 0.278 µg/mL | AUC(0-t) ([1]; 30 mg, Cohort 5 30 mg Twice Weekly after 5-day QD loading dose, Day-7, GM (CV %), read-out: AUC0-8): 1.39 µg·h/mL | Cmax ([1]; 30 mg, Cohort 6 30 mg QD x 5 d, BIW maintenance dose (so in the source), C2D1, Geo Mean): 1.15 µg/mL | AUC(0-t) ([1]; 30 mg, Cohort 6 30 mg QD x 5 d, BIW maintenance dose (so in the source), C2D1, Geo Mean, read-out: AUC0-8 h): 7.29 µg·h/mL | Cmax ([1]; 40 mg, Cohort 6 40 mg Twice Weekly after 5-day QD loading dose, C1D1, GM (CV %)): 0.83 µg/mL | AUC(0-t) ([1]; 40 mg, Cohort 6 40 mg Twice Weekly after 5-day QD loading dose, C1D1, GM (CV %), read-out: AUC0-8): 4.79 µg·h/mL | Cmax ([1]; 40 mg, Cohort 6 40 mg Twice Weekly after 5-day QD loading dose, C1D8, GM (CV %)): 1.86 µg/mL | AUC(0-t) ([1]; 40 mg, Cohort 6 40 mg Twice Weekly after 5-day QD loading dose, C1D8, GM (CV %), read-out: AUC0-8): 12 µg·h/mL | Tmax ([1]; 40 mg, Cohort 6 40 mg Twice Weekly after 5-day QD loading dose, C1D8): 1 h | Cmax ([1]; 40 mg, Cohort 6 40 mg Twice Weekly after 5-day QD loading dose, C2D1, GM (CV %)): 1.15 µg/mL | AUC(0-t) ([1]; 40 mg, Cohort 6 40 mg Twice Weekly after 5-day QD loading dose, C2D1, GM (CV %), read-out: AUC0-8): 7.29 µg·h/mL | Tmax ([1]; 40 mg, Cohort 6 40 mg Twice Weekly after 5-day QD loading dose, C2D1): 1 h | Cmax ([1]; 40 mg, Cohort 6 40 mg Twice Weekly after 5-day QD loading dose, Day-7, GM (CV %)): 0.454 µg/mL | AUC(0-t) ([1]; 40 mg, Cohort 6 40 mg Twice Weekly after 5-day QD loading dose, Day-7, GM (CV %), read-out: AUC0-8): 2.25 µg·h/mL | Tmax ([1]; 40 mg, Cohort 6 40 mg Twice Weekly after 5-day QD loading dose, Day-7): 4 h | Cmax ([1]; 50 mg, Cohort 7 50 mg QD x 3 d, QD maintenance dose, C2D1, Geo Mean): 1.25 µg/mL | AUC(0-t) ([1]; 50 mg, Cohort 7 50 mg QD x 3 d, QD maintenance dose, C2D1, Geo Mean, read-out: AUC0-8 h): 7.98 µg·h/mL | Cmax ([1]; Cohort 7 20 mg QD after 3-day 50 mg QD loading dose, C1D1, GM (CV %)): 0.44 µg/mL | AUC(0-t) ([1]; Cohort 7 20 mg QD after 3-day 50 mg QD loading dose, C1D1, GM (CV %), read-out: AUC0-8): 2.31 µg·h/mL | Cmax ([1]; Cohort 7 20 mg QD after 3-day 50 mg QD loading dose, C1D8, GM (CV %)): 1.01 µg/mL | AUC(0-t) ([1]; Cohort 7 20 mg QD after 3-day 50 mg QD loading dose, C1D8, GM (CV %), read-out: AUC0-8): 6.74 µg·h/mL | Cmax ([1]; Cohort 7 20 mg QD after 3-day 50 mg QD loading dose, C2D1, GM (CV %)): 0.84 µg/mL | Cmax ([1]; Cohort 7 20 mg QD after 3-day 50 mg QD loading dose, Day-7, GM (CV %)): 0.272 µg/mL | AUC(0-t) ([1]; Cohort 7 20 mg QD after 3-day 50 mg QD loading dose, Day-7, GM (CV %), read-out: AUC0-8): 0.8 µg·h/mL | Tmax ([1]; Cohort 7 20 mg QD after 3-day 50 mg QD loading dose, Day-7): 5 h | half-life ([1]; patients, dose cohorts 1 to 7, no accurate estimation): long half-life | Grade 3/4 elevated AST/ALT events, elevated bilirubin levels or hepatic AEs [2]: did not exhibit
